Patent US6881741B2 (ViroChem Pharma Inc., priority 2001, dated 2005)
pIC50: −log10 of the molar value.

Target: recombinant HCV NS5B (HCV RNA-dependent RNA polymerase) (Hepatitis C virus genotype 1b, UniProt P26663)
Test: biochemical
Conditions: HCV polymerase activity, list of compounds of Example 27; read-out: IC50 (polymerase activity)

Chain of recombinant HCV NS5B (HCV RNA-dependent RNA polymerase) (P26663 2420-3010 limits assumed): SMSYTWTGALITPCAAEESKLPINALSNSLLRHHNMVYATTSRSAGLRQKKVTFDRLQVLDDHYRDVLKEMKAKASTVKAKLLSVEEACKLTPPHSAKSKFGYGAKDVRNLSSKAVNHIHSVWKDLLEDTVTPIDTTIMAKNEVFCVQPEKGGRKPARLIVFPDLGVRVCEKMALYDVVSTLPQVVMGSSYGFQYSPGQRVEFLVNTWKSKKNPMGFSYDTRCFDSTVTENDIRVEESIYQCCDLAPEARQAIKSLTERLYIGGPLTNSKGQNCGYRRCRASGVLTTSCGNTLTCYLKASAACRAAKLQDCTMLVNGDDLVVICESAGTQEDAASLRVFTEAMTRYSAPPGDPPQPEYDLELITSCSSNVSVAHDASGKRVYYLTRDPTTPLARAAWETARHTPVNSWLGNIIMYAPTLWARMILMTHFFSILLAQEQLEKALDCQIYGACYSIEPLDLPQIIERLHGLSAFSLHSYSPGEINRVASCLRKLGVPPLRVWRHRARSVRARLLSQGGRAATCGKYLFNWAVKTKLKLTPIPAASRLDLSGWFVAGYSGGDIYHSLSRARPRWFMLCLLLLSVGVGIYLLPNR

Row | Compound | pIC50
1 | CCC(=O)N(Cc1ccc([N+](=O)[O-])cc1)c1cc(-c2ccccc2)sc1C(=O)O [Compound 418, 3-[(4-NITRO-BENZYL)-PROPIONYL- AMINO]-5-PHENYL-THIOPHENE-2- CARBOXYLIC ACID] | 4.70 to 5.30
2 | NC1CCCCC1N(C(=O)c1ccc(Cl)cc1Cl)c1cc(-c2ccccc2)sc1C(=O)O (centres unmarked) [Compound 549, 2-[(2-CARBOXY-5-PHENYL-THIOPHEN-3-YL)- (2,4-DICHLORO-BENZOYL)-AMINO]- CYCLOHEXYL-AMMONIUM; CHLORIDE] | > 5.30
3 | CC(=O)N1CCC(N(C(=O)c2ccc(Cl)cc2Cl)c2cc(-c3ccccc3)sc2C(=O)O)CC1 [Compound 429, 3-[(1-ACETYL-PIPERIDIN-4-YL)-(2,4- DICHLORO-BENZOYL)-AMINO]-5- PHENYL-THIOPHENE-2-CARBOXYLIC ACID] | > 5.30
4 | CC(=O)N(Cc1cccc(C)c1)c1cc(-c2ccccc2)sc1C(=O)O [Compound 434, 3-[ACETYL-(3-METHYL-BENZYL)-AMINO]- 5-PHENYL-THIOPHENE-2-CARBOXYLIC ACID] | 4.70 to 5.30
5 | CC(=O)N(Cc1ccccc1C)c1cc(-c2ccccc2)sc1C(=O)O [Compound 426, 3-[ACETYL-(2-METHYL-BENZYL)-AMINO]- 5-PHENYL-THIOPHENE-2-CARBOXYLIC ACID] | < 4.70
6 | CC(=O)N(Cc1ccccc1)c1cc(-c2ccccc2)sc1C(=O)O [Compound 450, 3-(ACETYL-BENZYL-AMINO)-5-PHENYL- THIOPHENE-2-CARBOXYLIC ACID] | > 5.30
7 | Cc1cccc(-c2cc(N(C(=O)C3CCC(C)CC3)C(C)C)c(C(=O)O)s2)c1 (centres unmarked) [Compound 448, 3-[ISOPROPYL-(4-METHYL- CYCLOHEXANECARBONYL)-AMINO]-5- #M!-TOLYL-THIOPHENE-2-CARBOXYLIC ACID] | > 5.30
8 | CC(C)C(=O)N(Cc1ccc(C(F)(F)F)cc1)c1cc(-c2ccccc2)sc1C(=O)O [Compound 411, 3-[ISOBUTYRYL-(4-TRIFLUOROMETHYL- BENZYL)-AMINO]-5-PHENYL-THIOPHENE- 2-CARBOXYLIC ACID] | 4.70 to 5.30
9 | CC(C)C(=O)N(Cc1ccccc1Cl)c1cc(-c2ccccc2)sc1C(=O)O [Compound 421, 3-[(2-CHLORO-BENZYL)-ISOBUTYRYL- AMINO]-5-PHENYL-THIOPHENE-2- CARBOXYLIC ACID] | 4.70 to 5.30
10 | Cc1ccc(N(C)C(=O)c2cc(-c3ccccc3)sc2C(=O)O)cc1 [Compound 584, 3-(METHYL-P-TOLYL-CARBAMOYL)-5- PHENYL-THIOPHENE-2-CARBOXYLIC ACID] | 4.70 to 5.30
11 | CCN(C(=O)CCC(C)C)c1cc(-c2ccccc2)sc1C(=O)O [Compound 494, 3-[ETHYL-(4-METHYL-PENTANOYL)- AMINO]-5-PHENYL-THIOPHENE-2- CARBOXYLIC ACID] | > 5.30
12 | O=C(O)c1sc(-c2ccccc2)cc1N(C(=O)c1ccc(Cl)cc1Cl)C1CCCC[C@@H]1O (stereo in doubt) [Compound 538, 3-[(2,4-DICHLORO-BENZOYL)-(2- HYDROXY-CYCLOHEXYL)-AMINO]-5- PHENYL-THIOPHENE-2-CARBOXYLIC ACID] | > 5.30
13 | O=C(O)c1sc(-c2ccccc2)cc1N(Cc1ccc([N+](=O)[O-])cc1)C(=O)C1CC1 [Compound 420, 3-[CYCLOPROPANECARBONYL-(4- NITRO-BENZYL)-AMINO]-5-PHENYL- THIOPHENE-2-CARBOXYLIC ACID] | 4.70 to 5.30
14 | CC(C)N(C(=O)c1cc2c(Cl)cc(Cl)cc2[nH]1)c1cc(-c2ccccc2)sc1C(=O)O [Compound 521, 3-[(4,6-DICHLORO-1#H!-INDOLE-2- CARBONYL)-ISOPROPYL-AMINO]-5- PHENYL-THIOPHENE-2-CARBOXYLIC ACID] | > 5.30

Same assay, conditions: IC50

Row | Compound | pIC50
15 | CC1CCC(C(=O)N(c2cc(-c3ccccc3)sc2C(=O)O)C(C)C)CC1 (centres unmarked) [Compound 316, 3-[ISOPROPYL-(4-METHYL- CYCLOHEXANECARBONYL)-AMINO]-5- PHENYL-THIOPHENE-2-CARBOXYLIC ACID] | < 4.70

Same assay, conditions: related polymerase activity (Example 27 list); read-out: IC50

Row | Compound | pIC50
16 | Cc1ccc(C(=O)N(C)c2cc(-c3ccccc3Cl)sc2C(=O)O)cc1 [Compound 207, 5-(2-CHLORO-PHENYL)-3-[METHYL-(4-METHYL-BENZOYL)-AMINO]-THIOPHENE-2-CARBOXYLIC ACID] | 4.70 to 5.30
17 | O=C(O)c1sc(-c2ccccc2)cc1NS(=O)(=O)c1cccc(Br)c1 [Compound 42, 3-(3-BROMO-BENZENESULFONYLAMINO)-5-PHENYL-THIOPHENE-2-CARBOXYLIC ACID] | 4.70 to 5.30
18 | Cc1ccc(S(=O)(=O)N(C)c2cc(-c3ccccc3)sc2C(=O)O)c(C)c1 [Compound 235, 3-[(2,4-DIMETHYL-BENZENESULFONYL)-METHYL-AMINO]-5-PHENYL-THIOPHENE-2-CARBOXYLIC ACID] | > 5.30
19 | CN(C(=O)c1ccc2ccccc2c1)c1cc(-c2ccccc2)sc1C(=O)O [Compound 252, 3-[METHYL-(NAPHTHALENE-2-CARBONYL)-AMINO]-5-PHENYL-THIOPHENE-2-CARBOXYLIC ACID] | 4.70 to 5.30
20 | O=C(O)c1sc(-c2ccccc2)cc1NS(=O)(=O)c1ccc(Cl)s1 [Compound 37, 3-(5-CHLORO-THIOPHENE-2-SULFONYLAMINO)-5-PHENYL-THIOPHENE-2-CARBOXYLIC ACID] | > 5.30
21 | O=C(O)c1sc(-c2ccccc2)cc1NS(=O)(=O)c1c(Cl)cccc1Cl [Compound 44, 3-(2,6-DICHLORO-BENZENESULFONYLAMINO)-5-PHENYL-THIOPHENE-2-CARBOXYLIC ACID] | > 5.30
22 | O=C(O)c1sc(-c2ccccc2)cc1NC(=O)N1CCN(c2cccc(Cl)c2)CC1 [Compound 160, 3-{[4-(3-CHLORO-PHENYL)-PIPERAZINE-1-CARBONYL]-AMINO}-5-PHENYL-THIOPHENE-2-CARBOXYLIC ACID] | 4.70 to 5.30
23 | COc1ccc(N2CCN(C(=O)Nc3cc(-c4ccccc4)sc3C(=O)O)CC2)cc1 [Compound 181, 3-{[4-(4-METHOXY-PHENYL)-PIPERAZINE-1-CARBONYL]-AMINO}-5-PHENYL-THIOPHENE-2-CARBOXYLIC ACID] | 4.70 to 5.30
24 | CN(C(=O)c1cc2ccccc2s1)c1cc(-c2ccccc2)sc1C(=O)O [Compound 251, 3-[(BENZO[B]THIOPHENE-2-CARBONYL)-METHYL-AMINO]-5-PHENYL-THIOPHENE-2-CARBOXYLIC ACID] | 4.70 to 5.30
25 | COc1cccc(CN(C(=O)c2ccc(C)cc2)c2cc(-c3ccccc3)sc2C(=O)O)c1 [Compound 344, 3-[(3-METHOXY-BENZYL)-(4-METHYL- BENZOYL)-AMINO]-5-PHENYL- THIOPHENE-2-CARBOXYLIC ACID] | > 5.30
26 | Cc1ccccc1S(=O)(=O)Nc1cc(-c2ccc(C(=O)O)cc2)sc1C(=O)OC(C)(C)C [Compound 239, 5-(4-CARBOXY-PHENYL)-3-(TOLUENE-2-SULFONYLAMINO)-THIOPHENE-2-CARBOXYLIC ACID TERT-BUTYL ESTER] | 4.70 to 5.30
27 | CC(C)N(C(=O)c1ccc(Cl)cc1[N+](=O)[O-])c1cc(-c2ccccc2)sc1C(=O)O [Compound 329, 3-[(4-CHLORO-2-NITRO-BENZOYL)- ISOPROPYL-AMINO]-5-PHENYL- THIOPHENE-2-CARBOXYLIC ACID] | > 5.30
28 | O=C(O)c1sc(-c2ccccc2)cc1NC(=O)N1CCC2(CC1)C(=O)NCN2c1ccccc1 [Compound 112, 3-[(4-OXO-1-PHENYL-1,3,8-TRIAZA-SPIRO[4,5]DECANE-8-CARBONYL)-AMINO]-5-PHENYL-THIOPHENE-2-CARBOXYLIC ACID] | > 5.30
29 | C=Cc1ccccc1S(=O)(=O)Nc1cc(-c2ccccc2)sc1C(=O)O [Compound 137, 5-PHENYL-3-(2-VINYL-BENZENESULFONYLAMINO)-THIOPHENE-2-CARBOXYLIC ACID] | 4.70 to 5.30
30 | CN(C(=O)c1sc2ccccc2c1Cl)c1cc(-c2ccccc2)sc1C(=O)O [Compound 256, 3-[(3-CHLORO-BENZO[B]THIOPHENE-2-CARBONYL)-METHYL-AMINO]-5-PHENYL-THIOPHENE-2-CARBOXYLIC ACID] | 4.70 to 5.30
31 | O=C(O)c1sc(-c2ccc(F)cc2)cc1NS(=O)(=O)c1ccccn1 [Compound 133, 5-(4-FLUORO-PHENYL)-3-(PYRIDINE-2-SULFONYLAMINO)-THIOPHENE-2-CARBOXYLIC ACID] | > 5.30
32 | Cc1ccc(C(=O)N(C)c2cc(-c3ccc(C(F)(F)F)cc3)sc2C(=O)O)cc1 [Compound 275, 3-[METHYL-(4-METHYL-BENZOYL)-AMINO]-5-(4-TRIFLUOROMETHYL-PHENYL)-THIOPHENE-2-CARBOXYLIC ACID] | > 5.30
33 | Cc1ccccc1S(=O)(=O)Nc1cc(-c2ccccc2C#N)sc1C(=O)O [Compound 102, 5-(2-CYANO-PHENYL)-3-(TOLUENE-2-SULFONYLAMINO)-THIOPHENE-2-CARBOXYLIC ACID] | 4.70 to 5.30
34 | Cc1ccccc1S(=O)(=O)Nc1cc(-c2cc(F)cc(F)c2)sc1C(=O)O [Compound 69, 5-(3,5-DIFLUORO-PHENYL)-3-(TOLUENE-2-SULFONYLAMINO)-THIOPHENE-2-CARBOXYLIC ACID] | > 5.30
35 | O=C(NCCCc1ccccc1)Nc1cc(-c2ccccc2)sc1C(=O)O [Compound 179, 5-PHENYL-3-[3-(3-PHENYL-PROPYL)-UREIDO]-THIOPHENE-2-CARBOXYLIC ACID] | 4.70 to 5.30
36 | C/C=C/C(=O)N(CC)c1cc(-c2ccccc2)sc1C(=O)O [Compound 394, 3-(BUT-2-ENOYL-ETHYL-AMINO)-5- PHENYL-THIOPHENE-2-CARBOXYLIC ACID] | 4.70 to 5.30
37 | COC(=O)c1sc(-c2ccccc2)cc1NC(=O)c1ccccc1C(=O)O [Compound 51, 3-(2-CARBOXY-BENZOYLAMINO)-5-PHENYL-THIOPHENE-2-CARBOXYLIC ACID METHYL ESTER] | 4.70 to 5.30
38 | Cc1ccccc1S(=O)(=O)Nc1cc(-c2ccc(F)c(F)c2)sc1C(=O)O [Compound 70, 5-(3,4-DIFLUORO-PHENYL)-3-(TOLUENE-2-SULFONYLAMINO)-THIOPHENE-2-CARBOXYLIC ACID] | > 5.30
39 | Cc1ccc(S(=O)(=O)Nc2cc(-c3ccc(CO)cc3)sc2C(=O)O)c(C)c1 [Compound 320, 3-(2,4-DIMETHYL- BENZENESULFONYLAMINO)-5-(4- HYDROXYMETHYL-PHENYL)- THIOPHENE-2-CARBOXYLIC ACID] | > 5.30
40 | Cc1ccccc1S(=O)(=O)Nc1cc(C#C[Si](C)(C)C)sc1C(=O)O [Compound 79] | > 5.30
41 | Cc1ccc(C)c(S(=O)(=O)Nc2cc(-c3ccc([N+](=O)[O-])cc3)sc2C(=O)O)c1 [Compound 100, 3-(2,5-DIMETHYL-BENZENESULFONYLAMINO)-5-(4-NITRO-PHENYL)-THIOPHENE-2-CARBOXYLIC ACID] | > 5.30
